Test: Human HepG2 cell viability assay in 384 well format
Type: toxicity, cell-based
Design: dose 125 nL, time 70.5 hour; concentration not given beside the values
Conditions: HepG2 cells, read-out: Inhibition
In the case of `NS(=O)(=O)CCNC(=O)c1cc(Br)c2c(c1)OCCO2`, the cytotoxicity at 70.5 h is reported as -10.7%. `Cc1cc(NC(=O)N2CCCC(CO)C2)nn1-c1ccccc1Cl` (configuration not stated) gave a cytotoxicity at 70.5 h of -1.91%. Work on `CC(C)CNC(=O)CN(C)S(C)(=O)=O` yielded a cytotoxicity at 70.5 h of 0.607%. `Cc1ccc(C(=O)NCC(C)CN2CCCC2=O)c(=O)[nH]1` (configuration not stated) showed a cytotoxicity at 70.5 h of -113%. Compound `COc1ccc(CN2C[C@@H](CN(C)C)[C@@H](CO)C2)cc1CN1CCCC1` has a cytotoxicity at 70.5 h of 5.87%. `CN(Cc1cccs1)C(=O)CS(=O)(=O)Cc1ccc(Cl)c(Cl)c1` showed a cytotoxicity at 70.5 h of 26.3%. Compound `CN1CCN(c2cc(CNC(=O)c3ccsc3)ccn2)CC1` has a cytotoxicity at 70.5 h of 1%. For `Cc1nnc2ccc(OCCNS(=O)(=O)c3cccs3)nn12`, the cytotoxicity at 70.5 h was -9.99%. Work on `CC(C)CN1C[C@H](COCc2ccccc2)Oc2ncccc2C1=O` yielded a cytotoxicity at 70.5 h of 23.1%. With `OCc1cccc(OCc2ccon2)c1` the cytotoxicity at 70.5 h was -3.01%. Compound `CO[C@@H]1c2ccccc2C2(CCN(C(=O)CNS(C)(=O)=O)CC2)[C@H]1O` has a cytotoxicity at 70.5 h of 23.4%. In the case of `COc1cccc(CCNC(=O)CCS(=O)(=O)C2CCCC2)c1`, the cytotoxicity at 70.5 h is reported as -12.4%. For `CCN1CCNC(=O)C12CCN(S(=O)(=O)c1ccccc1)CC2`, the cytotoxicity at 70.5 h was -6.26%. Work on `O=C(NC1CC1)[C@@]12CCO[C@@H]1CCN(Cc1ccc3c(c1)OCO3)C2` yielded a cytotoxicity at 70.5 h of 2.54%. For `O=C(CCc1cc2n(n1)CCCN(C(=O)c1ccncc1)C2)NC1CC1`, the cytotoxicity at 70.5 h was -6.73%. With `Cc1cnn(CCNCC(=O)NCCOc2ccc(Cl)cc2)c1` the cytotoxicity at 70.5 h was -13%. `CC(C)C1CCCN1C(=O)c1ccc(-n2ncc(C#N)c2N)cc1` (configuration not stated) showed a cytotoxicity at 70.5 h of -5.76%. `N#Cc1c(Cl)nsc1N1CCN(CC2CCCCC2)CC1` showed a cytotoxicity at 70.5 h of 0.793%. For `COCCCN1Cc2cccc(NC(=O)C(C)(C)C)c2C1`, the cytotoxicity at 70.5 h was 31.1%. With `OCC1CCCCN1Cc1nc(Cc2cccc(F)c2)no1` (configuration not stated) the cytotoxicity at 70.5 h was -12.1%. For `Cc1ccc(C2COCCN2C(=O)c2ccc(C)s2)o1` (configuration not stated), the cytotoxicity at 70.5 h was -9.04%. Work on `Cc1nc2cc(C(=O)N(CCC#N)CC3CCCO3)ccc2[nH]1` (configuration not stated) yielded a cytotoxicity at 70.5 h of -1.19%. With `Cc1ncsc1-c1nnc(C2CCN(Cc3ccc(F)cc3)CC2)o1` the cytotoxicity at 70.5 h was 8.74%. For `Cc1nn(C)c(C)c1CN1CCNCC1`, the cytotoxicity at 70.5 h was -4.45%. `O=C(CCC(=O)Nc1nnc(C2CCCCC2)s1)NCC1CCCO1` (configuration not stated) showed a cytotoxicity at 70.5 h of -12.1%. For `Cc1cc(C(F)(F)F)nc(CNC(=O)C2CCCCCN2C)n1` (configuration not stated), the cytotoxicity at 70.5 h was 2.11%. For `Cc1cccc(CN2C(=O)OCC2CO)c1F` (configuration not stated), the cytotoxicity at 70.5 h was 14.6%. Compound `O=C(Nc1cccnc1)[C@H]1COC[C@H]2CN(C3CCCC3)C[C@H]21` has a cytotoxicity at 70.5 h of 3.49%. With `Cc1occc1C(=O)N1C[C@@H]2OCCN(CCN3CCCC3)[C@@H]2C1` the cytotoxicity at 70.5 h was -3.12%. `CC(C)NC(=O)N1CCC(c2nnc3n2CCNC3)CC1` showed a cytotoxicity at 70.5 h of 16.3%. `O=C(NC[C@H]1OC[C@@H](NC2CCOCC2)[C@@H]1O)Nc1ccccc1` showed a cytotoxicity at 70.5 h of 14.3%. In the case of `CCn1cnnc1C1CCN(C(=O)c2cc(C)c(C)s2)CC1`, the cytotoxicity at 70.5 h is reported as 15.5%. Work on `Cc1cccc(C2CCCN(C(=O)CN3CCCC3=O)C2)c1` (configuration not stated) yielded a cytotoxicity at 70.5 h of -21.9%. With `Cc1nc(-c2cn(CCN)nn2)n(-c2ccc(C(F)(F)F)cc2)n1` the cytotoxicity at 70.5 h was 5.79%. `CCc1noc(CNc2ccc(C(=O)N3CCCC3)cc2C)n1` gave a cytotoxicity at 70.5 h of 10.5%. `CN1CCN(C2CCN(CC(=O)NCC(F)(F)F)CC2)C1=O` gave a cytotoxicity at 70.5 h of -6.61%. With `Cc1noc(C)c1CN(C)c1ncnc2ccccc12` the cytotoxicity at 70.5 h was -6.84%. `CS(=O)(=O)N1CC[C@H]2O[C@H](C(=O)NCCc3ccccn3)CC[C@H]21` gave a cytotoxicity at 70.5 h of -9.62%. With `CCOc1cncc(N(C)CC(=O)NC)n1` the cytotoxicity at 70.5 h was -7.85%. Work on `CC(=O)N1CCc2c(nc(N(C)C)nc2N(C)CCCC2CCCO2)C1` (configuration not stated) yielded a cytotoxicity at 70.5 h of 10.7%. `CCc1cnc(N2Cc3cnc(C(C)(C)C)nc3C2)nc1` gave a cytotoxicity at 70.5 h of -3.57%. Work on `Cn1cncc1CN1C[C@@H]2OCCN(c3ncccn3)[C@@H]2C1` yielded a cytotoxicity at 70.5 h of -9.56%. `Nc1ncccc1C(=O)NCc1cccc(Cl)c1` showed a cytotoxicity at 70.5 h of -8.22%. Work on `CC(=O)N1CCCCC1c1cc(CO)[nH]n1` (configuration not stated) yielded a cytotoxicity at 70.5 h of -18.5%. With `c1ccc(CN2C[C@@H]3OCCN(c4cccnc4)[C@@H]3C2)nc1` the cytotoxicity at 70.5 h was -12.2%. Compound `Clc1ccc(CN2CCCC2Cn2cncn2)c2ncccc12` (configuration not stated) has a cytotoxicity at 70.5 h of -2.37%. `O=C(c1ccoc1)N1CCO[C@]2(CCC[C@H]2COCc2cccnc2)C1` gave a cytotoxicity at 70.5 h of -0.748%. Work on `CS(=O)(=O)NCCC(=O)Nc1cnn(-c2ccccc2Cl)c1` yielded a cytotoxicity at 70.5 h of -11.9%. `O=C(COc1ccc(Cl)cc1)N1CCOCC1c1ncon1` (configuration not stated) gave a cytotoxicity at 70.5 h of -1.69%. Work on `CCC(C)[C@H](N)c1nnc(SCC(=O)Nc2cc(C)ccc2C)o1` (some centres not stated) yielded a cytotoxicity at 70.5 h of -1.84%. For `Cn1nc(C2CCNC2)c2c(C(=O)NCC(F)(F)F)cc(C3CC3)nc21` (configuration not stated), the cytotoxicity at 70.5 h was -7.49%. Compound `Cc1ccc(CNC2CCN(CCc3ccncc3)CC2)s1` has a cytotoxicity at 70.5 h of 1.18%. `CN1CC2(CCN(C(=O)c3cc(-n4cccn4)ccc3Cl)CC2)OC1=O` gave a cytotoxicity at 70.5 h of 7.23%. For `CNCC(=O)N1CCC(c2cccc(Oc3ccccc3)n2)CC1`, the cytotoxicity at 70.5 h was -7.76%. In the case of `Cc1cnc(N2CCN(C)c3ncccc3C2)nc1`, the cytotoxicity at 70.5 h is reported as 4.51%. Compound `CC(C)CCNC(=O)CCc1ccnc2ccccc12` has a cytotoxicity at 70.5 h of -14.4%. `CCCS(=O)(=O)N1Cc2nccn2CC(CN(C)C)C1` (configuration not stated) showed a cytotoxicity at 70.5 h of -10.3%.

From ChEMBL document CHEMBL3507680, “University of Dundee, Gates Library screen for HepG2 cell viability”
